This note sets out measurements from patent US7928103B2, “Compounds which modulate the CB2 receptor” (Boehringer Ingelheim International GmbH, priority 2006, dated 2011).

For test [1], the target named is T1, human CB2R (Homo sapiens, UniProt P34972). Nature of the test: Human CB2 receptor binding (3H-CP55940 competition, SPA). Set-up: purchased Perkin Elmer Life and Analytical Sciences; host or cells: HEK293 EBNA cells, stably transfected. The note with it: through the use of the above described assays (CB1/CB2 binding, CB2R and CB1R cAMP); assay not specified further. Here is the method:
A. Human CB1 and CB2 Receptor Binding:
CB2 membranes were purchased and made from HEK293 EBNA cells stably transfected with human CB2 receptor cDNA (Perkin Elmer Life and Analytical Sciences). CB1 membranes were isolated from HEK cells stably co-transfected with human CB1 receptor and Gα16 cDNA's. The membrane preparation was bound to scintillation beads (Ysi-Poly-L-lysine SPA beads, GE Healthcare) for 4 hours at room temperature in assay buffer containing 50 mM Tris, pH 7.5, 2.5 mM EDTA, 5 mM MgCl2, 0.8% fatty acid free Bovine Serum Albumin. Unbound membrane was removed by washing in assay buffer. Membrane-bead mixture was added to 96-well assay plates in the amounts of 15 ug membrane per well (CB2) or 2.5 ug per well (CB1) and 1 mg SPA bead per well. Compounds were added to the membrane-bead mixture in dose-response concentrations ranging from 1×10^−5 M to 1×10^−10 M with 0.25% DMSO, final. The competition reaction was initiated with the addition of ^3H-CP55940 (Perkin Elmer Life and Analytical Sciences) at a final concentration of 1.5 nM (CB2) or 2.5 nM (CB1). The reaction was incubated at room temperature for 18 hours and read on TopCount NXT plate reader. Total and non-specific binding was determined in the absence and presence of 1.25 uM Win 55212 (Sigma). IC50 values for each compound were calculated as the concentration of compound that inhibits the specific binding of the radioactively labeled ligand to the receptor by 50% using the XLFit 4.1 four parameter logistic model. IC50 values were converted to inhibition constant (Ki) values using Cheng-Prusoff equation.

Test [2] addresses T1, human CB2R. Nature of the test: CB2R mediated modulation of cAMP synthesis. Also on record: host or cells: CHO cells. The class given is cell-based. The note with it: agonists decrease forskolin induced production of cAMP; CHO cells expressing human CB2R. Here is the method: B. CB2R Mediated Modulation of cAMP Synthesis:
Compounds of the invention were evaluated for their CB2 agonist or inverse agonistic activity in accordance with the following experimental method.
CHO cells expressing human CB2R (Euroscreen) were plated at a density of 5000 cells per well in 384 well plates and incubated overnight at 37° C. After removing the media, the cells were treated with test compounds diluted in stimulation buffer containing 1 mM IBMX, 0.25% BSA and 10 uM Forskolin. The assay was incubated for 30 minutes at 37° C. Cells were lysed and the cAMP concentration was measured using DiscoverX-XS cAMP kit, following the manufacturer's protocol. In this setting, agonists will decrease forskolin induced production of cAMP while inverse agonists will further increase forskolin induced production of cAMP. EC50 of agonists were calculated as follows. The maximal amount of cAMP produced by forskolin compared to the level of cAMP inhibited by 1 uM CP55940 is defined as 100%. The EC50 value of each test compound was determined as the concentration at which 50% of the forskolin-stimulated cAMP synthesis was inhibited. Data was analyzed using a four-parameter logistic model. (Model 205 of XLfit 4.0).

Molecules are shown by their SMILES.

T1 sequence (P34972 whole entry): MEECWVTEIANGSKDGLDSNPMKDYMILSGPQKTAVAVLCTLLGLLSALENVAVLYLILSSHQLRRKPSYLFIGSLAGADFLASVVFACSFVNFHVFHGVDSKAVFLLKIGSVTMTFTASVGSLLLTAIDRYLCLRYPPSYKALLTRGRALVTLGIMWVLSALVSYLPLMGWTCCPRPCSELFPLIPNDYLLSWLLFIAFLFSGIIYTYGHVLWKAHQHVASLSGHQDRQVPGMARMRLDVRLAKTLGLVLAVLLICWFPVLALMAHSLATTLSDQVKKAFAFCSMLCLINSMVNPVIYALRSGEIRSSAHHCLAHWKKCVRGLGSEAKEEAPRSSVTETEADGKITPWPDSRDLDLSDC

Regarding `COc1ccccc1Nc1ccc(CN2CCO[C@@H](c3ccccc3)C2)cn1` [Example 21, (2-Methoxy-phenyl)-[5-((S)-2-phenyl-morpholin-4-ylmethyl)-pyridin-2-yl]-amine], at human CB2R [1], the “found to exhibit activity” value is “exhibit activity”. The “found to exhibit agonistic activity” value at human CB2R [2] was “exhibit agonistic activity”.
The like results for `c1ccc(Oc2ccc(CN3CCO[C@@H](c4ccccc4)C3)cc2)cc1` [Example 34, (S)-4-(4-Phenoxy-benzyl)-2-phenyl-morpholine] were, in that order, “exhibit activity” and “exhibit agonistic activity”.
The like results for `CC(C)c1ccccc1Nc1ccc(CN2CCO[C@@H](c3ccccc3)C2)cn1` [Example 23, (2-Isopropyl-phenyl)-[5-((S)-2-phenyl-morpholin-4-ylmethyl)-pyridin-2-yl]-amine] were, in that order, “exhibit activity” and “exhibit agonistic activity”.
The like results for `c1ccc([C@H]2CN(Cc3ccc(Nc4cc5ccccc5cn4)nc3)CCO2)cc1` [Example 33, Isoquinolin-3-yl-[5-((S)-2-phenyl-morpholin-4-ylmethyl)-pyridin-2-yl]-amine] were, in that order, “exhibit activity” and “exhibit agonistic activity”.
In the case of `c1ccc([C@H]2CN(Cc3ccc(Nc4ccc5ccccc5c4)nc3)CCO2)cc1` [Example 7, Naphthalen-2-yl-[5-((S)-2-phenyl-morpholin-4-ylmethyl)-pyridin-2-yl]-amine], the “found to exhibit activity” value on human CB2R [1] was “exhibit activity”. The “found to exhibit agonistic activity” value on human CB2R [2] was “exhibit agonistic activity”.
Turning to `c1ccc([C@H]2CN(Cc3ccc(Nc4cccc5ncccc45)nc3)CCO2)cc1` [Example 12, [5-((S)-2-Phenyl-morpholin-4-ylmethyl)-pyridin-2-yl]-quinolin-5-yl-amine], at human CB2R [1], the “found to exhibit activity” value is listed as “exhibit activity”. Also, the “found to exhibit agonistic activity” value on human CB2R [2] is on record as “exhibit agonistic activity”.
The like results for `CCc1ccc(Nc2ccc(CN3CCO[C@@H](c4ccccc4)C3)cn2)cc1` [Example 5, (4-Ethyl-phenyl)-[5-((S)-2-phenyl-morpholin-4-ylmethyl)-pyridin-2-yl]-amine] were, in that order, “exhibit activity” and “exhibit agonistic activity”.
Turning to `CCOc1ccccc1Nc1ccc(CN2CCO[C@@H](c3ccccc3)C2)cn1` [Example 22, (2-Ethoxy-phenyl)-[5-((S)-2-phenyl-morpholin-4-ylmethyl)-pyridin-2-yl]-amine], the “found to exhibit activity” value on human CB2R [1] was “exhibit activity”. Moreover, the “found to exhibit agonistic activity” value on human CB2R [2] is reported as “exhibit agonistic activity”.
With `c1ccc([C@H]2CN(Cc3ccc(Nc4cccnc4)nc3)CCO2)cc1` [Example 9, [5-((S)-2-Phenyl-morpholin-4-ylmethyl)-pyridin-2-yl]-pyridin-3-yl-amine], the “found to exhibit activity” value at human CB2R [1] is reported as “exhibit activity”. The “found to exhibit agonistic activity” value on human CB2R [2] is “exhibit agonistic activity”.
The like results for `c1ccc([C@H]2CN(Cc3ccc(Nc4cnc5ccccc5c4)nc3)CCO2)cc1` [Example 11, [5-((S)-2-Phenyl-morpholin-4-ylmethyl)-pyridin-2-yl]-quinolin-3-yl-amine] were, in that order, “exhibit activity” and “exhibit agonistic activity”.
On to `c1ccc([C@H]2CN(Cc3ccc(Nc4ccncc4)nc3)CCO2)cc1` [Example 10, [5-((S)-2-Phenyl-morpholin-4-ylmethyl)-pyridin-2-yl]-pyridin-4-yl-amine], for which the “found to exhibit activity” value on human CB2R [1] was “exhibit activity”. Further, the “found to exhibit agonistic activity” value at human CB2R [2] was “exhibit agonistic activity”.
For `Cc1ccc(Nc2ccc(CN3CCO[C@@H](c4ccccc4)C3)cn2)cc1` [Example 31, [5-((S)-2-Phenyl-morpholin-4-ylmethyl)-pyridin-2-yl]-p-tolyl-amine], the “found to exhibit activity” value at human CB2R [1] is recorded as “exhibit activity”. The “found to exhibit agonistic activity” value at human CB2R [2] is “exhibit agonistic activity”.
The like results for `Clc1ccccc1Nc1ccc(CN2CCO[C@@H](c3ccccc3)C2)cn1` [Example 17, (2-Chloro-phenyl)-[5-((S)-2-phenyl-morpholin-4-ylmethyl)-pyridin-2-yl]-amine] were, in that order, “exhibit activity” and “exhibit agonistic activity”.
In the case of `c1ccc(Nc2ccc(CN3CCO[C@@H](c4ccccc4)C3)cn2)cc1` [Example 15, Phenyl-[5-((S)-2-phenyl-morpholin-4-ylmethyl)-pyridin-2-yl]-amine], the “found to exhibit activity” value at human CB2R [1] is “exhibit activity”. In addition, the “found to exhibit agonistic activity” value at human CB2R [2] is recorded as “exhibit agonistic activity”.
For the compound `c1ccc([C@H]2CN(Cc3ccc(Nc4ccncn4)nc3)CCO2)cc1` [Example 8, [5-((S)-2-Phenyl-morpholin-4-ylmethyl)-pyridin-2-yl]-pyrimidin-4-yl-amine], the “found to exhibit activity” value at human CB2R [1] was “exhibit activity”. Moreover, on human CB2R [2], the “found to exhibit agonistic activity” value is “exhibit agonistic activity”.
With `Clc1cccc(Nc2ccc(CN3CCO[C@@H](c4ccccc4)C3)cn2)c1` [Example 26, (3-Chloro-phenyl)-[5-((S)-2-phenyl-morpholin-4-ylmethyl)-pyridin-2-yl]-amine], on human CB2R [1], the “found to exhibit activity” value was “exhibit activity”. Moreover, the “found to exhibit agonistic activity” value at human CB2R [2] was “exhibit agonistic activity”.
On to `Clc1ccc(Nc2ccc(CN3CCO[C@@H](c4ccccc4)C3)cn2)cc1` [Example 30, (4-Chloro-phenyl)-[5-((S)-2-phenyl-morpholin-4-ylmethyl)-pyridin-2-yl]-amine], for which, on human CB2R [1], the “found to exhibit activity” value is given as “exhibit activity”. For the same compound, the “found to exhibit agonistic activity” value on human CB2R [2] is listed as “exhibit agonistic activity”.
The like results for `c1ccc([C@H]2CN(Cc3ccc(Nc4cccc5cnccc45)nc3)CCO2)cc1` [Example 14, Isoquinolin-5-yl-[5-((S)-2-phenyl-morpholin-4-ylmethyl)-pyridin-2-yl]-amine] were, in that order, “exhibit activity” and “exhibit agonistic activity”.
In the case of `c1ccc([C@H]2CN(Cc3ccc(Nc4cccc5cccnc45)nc3)CCO2)cc1` [Example 13, [5-((S)-2-Phenyl-morpholin-4-ylmethyl)-pyridin-2-yl]-quinolin-8-yl-amine], the “found to exhibit activity” value at human CB2R [1] is listed as “exhibit activity”. Further, the “found to exhibit agonistic activity” value at human CB2R [2] was “exhibit agonistic activity”.
The like results for `Clc1ccc(Cl)c(Nc2ccc(CN3CCO[C@@H](c4ccccc4)C3)cn2)c1` [Example 20, (2,5-Dichloro-phenyl)-[5-((S)-2-phenyl-morpholin-4-ylmethyl)-pyridin-2-yl]-amine] were, in that order, “exhibit activity” and “exhibit agonistic activity”.
On to `Fc1ccc(Nc2ccc(CN3CCO[C@@H](c4ccccc4)C3)cn2)cc1` [Example 29, (4-Fluoro-phenyl)-[5-((S)-2-phenyl-morpholin-4-ylmethyl)-pyridin-2-yl]-amine], for which the “found to exhibit activity” value at human CB2R [1] was “exhibit activity”. Besides, the “found to exhibit agonistic activity” value on human CB2R [2] was “exhibit agonistic activity”.
The like results for `CC(C)(C)c1cc(Nc2ccc(CN3CCO[C@@H](c4ccccc4)C3)cn2)no1` [Example 1, (5-tert-Butyl-isoxazol-3-yl)-[5-((S)-2-phenyl-morpholin-4-ylmethyl)-pyridin-2-yl]-amine] were, in that order, “exhibit activity” and “exhibit agonistic activity”.
The like results for `CCOc1ccc(Nc2ccc(CN3CCO[C@@H](c4ccccc4)C3)cn2)cc1` [Example 3, (4-Ethoxy-phenyl)-[5-((S)-2-phenyl-morpholin-4-ylmethyl)-pyridin-2-yl]-amine] were, in that order, “exhibit activity” and “exhibit agonistic activity”.
As to `Cc1cccc(Nc2ccc(CN3CCO[C@@H](c4ccccc4)C3)cn2)c1` [Example 28, [5-((S)-2-Phenyl-morpholin-4-ylmethyl)-pyridin-2-yl]-m-tolyl-amine], the “found to exhibit activity” value on human CB2R [1] is on record as “exhibit activity”. The “found to exhibit agonistic activity” value at human CB2R [2] is “exhibit agonistic activity”.
